Results from patent US20200399238A1, “THERAPEUTIC AURONES” (MIDDLE TENNESSEE STATE UNIVERSITY, priority 2016, published 2020).
Like-named read-outs stand apart in the source and are kept apart here.

Tests used:
[1] = tested on: Leishmania amazonensis promastigotes expressing beta-lactamase; experiment: microbe, parasite or virus in culture; type: cell-based
[2] = tested on: rat skeletal muscle cell line, L6; experiment: cells; type: cell-based
[3] = tested on: Trypanosoma cruzi Tulahuen trypomastigotes; experiment: T. cruzi extracellular assay (CellTiter Glo); type: cell-based; conditions: Trypanosoma cruzi, TULAHUEN
[4] = tested on: Trypanosoma brucei brucei 427 cells; experiment: T. brucei culture and assay (PrestoBlue); type: cell-based
[5] = tested on: Trypanosoma cruzi Tulahuen cells expressing beta-galactosidase; experiment: T. cruzi intracellular assay (beta-galactosidase, L6 host cells); conditions: for IC50: Trypanosoma cruzi, TULAHUEN
[6] = tested on: C. albicans (ATCC strain 90028); experiment: Antifungal microdilution broth assay (PrestoBlue), C. albicans; type: cell-based, Candida albicans; conditions: Candida albicans, ATCC90028, Table 4B; C. albicans; 100 μM; value ± spread; read-out: Percent Inhibition (at 100 μM)
Procedure, shortened: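 Inoculum of 1.5×10^3 cells/mL in RPMI-MOPS (0.165 M MOPS, pH 7.0), exposed to aurones for 24 h at 35 °C. Growth read by PrestoBlue (10% final) fluorescence at ex 560/em 590 nm.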

[7] = Leishmania amazonensis, read-out: IC50 L. amaz.
[8] = Rattus norvegicus, Table 1, read-out: IC50 Toxicity (L6)
[9] = Table 1, ^b extracellular T. cruzi assay, read-out: IC50 T. cruzi
[10] = Table 2, extracellular assay, read-out: IC50 T. cruzi (footnote b: Extracellular T. cruzi assay)
[11] = Trypanosoma brucei, Table 1, mean of 2(+) independent trials, read-out: IC50 T. brucei
[12] = Table 2, L6 IC50 / L. amazonensis IC50
[13] = Table 2, L6 mammalian cells, read-out: IC50 Toxicity (L6)
[14] = Rattus norvegicus, Table 3B, weighted means of two or more independent trials, read-out: IC50 L6
[15] = read-out: IC50 T. cruzi, Table 1, intracellular assay, mean of 2(+) trials (^c one trial)
[16] = read-out: IC50 T. cruzi, Table 2, intracellular assay, mean of 2(+) independent trials
[17] = read-out: IC50 TC-I, Table 3B, weighted means of two or more independent trials
[18] = Table 2, mean of 2(+) independent trials, read-out: IC50 T. brucei

SMILES | IC50 [1, 7] | IC50 [2, 8] | IC50 [4, 11] | IC50 [2, 14] | IC50 [5, 15] | IC50 [5, 16] | IC50 [5, 17] | melting point | further results
CC(=O)N1/C(=C\c2ccc(CO)o2)C(=O)c2ccccc21 [AA4A] | < 1 µM | 87 µM | 34.7 µM | – | – | – | – | – | IC50 ([1]; Leishmania amazonensis, read-out: IC50 L. amaz. (footnote c: value obtained from one trial)): < 1 µM; IC50 [3, 9]: > 50 µM; IC50 [3, 10]: > 50 µM
N#Cc1ccc(/C=C2\Oc3ccc(Br)cc3C2=O)cc1 [Aurone 6003, (Z)-4-((5-bromo-3-oxobenzofuran-2(3H)-ylidene)methyl)benzonitrile] | 1.22 µM | > 100 µM | 17.1 µM | – | – | – | – | – | Selectivity L6/La ([1]; Table 1): >81.97; Selectivity L6/La [1, 12]: >81.97; IC50 [2, 13]: > 100 µM; IC50 [3, 9]: > 50 µM; IC50 [3, 10]: > 50 µM; Selectivity L6/Tb ([4]; Table 1): >5.85; Selectivity L6/Tb ([4]; Table 2, L6 IC50 / T. brucei IC50): >5.85
Cc1[nH]cnc1/C=C1\Oc2ccccc2C1=O [Aurone 9059, (Z)-2-((5-methyl-H-imidazol-4-yl)methylene)benzofuran-3(2H)-one] | 3.96 µM | 321 µM | > 50 µM | 321 µM | 5.25 µM | 5.25 µM | 5.25 µM | 180 to 183 °C | Selectivity L6/La ([1]; Table 1): 80.99; Selectivity L6/La [1, 12]: 80.99; selectivity for T. cruzi (L6/Tc) [5]: 61.09; Selectivity L6/Tc ([5]; Table 1, intracellular T. cruzi IC50): 61.09; Selectivity L6/Tc ([5]; Table 2, L6 IC50 / T. cruzi IC50 (intracellular assay)): 61.09; Selectivity L6/Tc-I ([5]; Table 3B, estimated from highest L6 dose tested where no L6 IC50): 61.09; IC50 ([5]; read-out: T. cruzi IC50 dose): 5.25 µM; IC50 [4, 18]: > 50 µM; IC50 ([4]; Trypanosoma brucei, read-out: T. brucei IC50 dose): > 50 µM
O=C1/C(=C/c2sccc2Br)Oc2ccccc21 [Aurone 9060] | 1.36 µM | > 100 µM | > 50 µM | > 100 µM | 34.6 µM | 34.6 µM | 34.6 µM | 176 to 180 °C | –
O=C1/C(=C/c2cc(Br)cs2)Oc2ccccc21 [Aurone 9061, (Z)-2-((4-bromothiophen-2-yl)methylene)benzofuran-3(2H)-one] | 1.7 µM | > 100 µM | > 50 µM | > 100 µM | > 50 µM | > 50 µM | > 50 µM | 125 to 129 °C | –
O=C1/C(=C/c2cccc3[nH]ccc23)Oc2ccccc21 [Aurone 9063, (Z)-2-((1H-indol-4-yl)methylene)benzofuran-3(2H)-one] | 1.13 µM | 94 µM | > 50 µM | 94 µM | 18.9 µM | 18.9 µM | 18.9 µM | 230 to 238 °C | –
O=C1/C(=C/c2ccc(CO)o2)Oc2ccccc21 [Aurone 9067, (Z)-2-((5-(hydroxymethyl)furan-2-yl)methylene)benzofuran-3(2H)-one] | < 1 µM | 31.1 µM | 34.9 µM | 31.1 µM | 12.5 µM | 12.5 µM | 12.5 µM | 61 to 63 °C | IC50 ([2]; Rattus norvegicus, read-out: toxicity in L6): 31.1 µM; IC50 ([5]; read-out: T. cruzi IC50 dose): 12.5 µM
O=C1/C(=C/c2ccc(O)cc2)Oc2ccccc21 [Aurone 9068, (Z)-2-(4-hydroxybenzylidene)benzofuran-3(2H)-one] | 1.57 µM | > 200 µM | > 50 µM | – | > 50 µM | > 50 µM | – | 258 to 260 °C | –
N#Cc1cccc(/C=C2\Oc3ccccc3C2=O)c1 [Aurone 9070, (Z)-3-((3-oxobenzofuran-2(3H)-ylidene)methyl)benzonitrile] | < 1 µM | > 200 µM | 34.7 µM | – | 16.7 µM | 16.7 µM | – | 175 to 177 °C | –
N#Cc1ccc(/C=C2\Oc3cc(O)ccc3C2=O)cc1 [Aurone 9076, (Z)-4-((6-hydroxy-3-oxobenzofuran-2(3H)-ylidene)methyl)benzonitrile] | 2.44 µM | > 100 µM | > 50 µM | – | 26.3 µM | 26.3 µM | – | 112 to 115 °C | –
O=C1/C(=C/c2ccc(C(F)(F)F)cc2)Oc2ccccc21 [Aurone 9084, (Z)-2-(4-(trifluoromethyl)benzylidene)benzofuran-3(2H)-one] | 2.94 µM | > 400 µM | 20.4 µM | – | 9.38 µM | 9.38 µM | – | 98 to 102 °C | –
O=C1/C(=C/c2cccc(C(F)(F)F)c2)Oc2ccccc21 [Aurone 9085, (Z)-2-(3-(trifluoromethyl)benzylidene)benzofuran-3(2H)-one] | 4.43 µM | 73.4 µM | > 50 µM | – | 11.1 µM | 11.1 µM | – | 128 to 133 °C | –
O=C1/C(=C/c2ccccc2C(F)(F)F)Oc2ccccc21 [Aurone 9086, (Z)-2-(2-(trifluoromethyl)benzylidene)benzofuran-3(2H)-one] | 1.9 µM | 130 µM | 37.6 µM | – | 18.5 µM | 18.5 µM | – | 118 to 123 °C | –
O=C1/C(=C/c2ccccc2O)Oc2ccccc21 [Aurone 9088, (Z)-2-(2-hydroxybenzylidene)benzofuran-3(2H)-one] | 9.54 µM | > 100 µM | > 50 µM | – | 18.4 µM | 18.4 µM | – | 215 to 216 °C | inhibition at 100 µM [6]: 1 ± 1.1%
O=C1/C(=C/c2cccnc2)Oc2ccccc21 [Aurone 9253, (Z)-2-(pyridin-3-ylmethylene)benzofuran-3(2H)-one] | 7.38 µM | < 100 µM | > 50 µM | > 100 µM | 17.8 µM | 17.8 µM | 17.8 µM | 122 to 123 °C | IC50 ([4]; Trypanosoma brucei, read-out: IC50 TB): > 50 µM
N=C1/C(=C/c2ccccn2)Oc2ccc(F)cc21 [Aurone 9312, (Z)-5-fluoro-2-(pyridin-2-ylmethylene)benzofuran-3(2H)-imine] | < 1 µM | > 200 µM | > 50 µM | – | – | – | – | – | Selectivity L6/La ([1]; Table 1): >200; Selectivity L6/La [1, 12]: >200; IC50 ([1]; read-out: IC50 L. amaz., Table 2, mean of 2(+) independent trials): < 1 µM; IC50 [2, 13]: > 200 µM; IC50 [3, 9]: > 50 µM; IC50 [3, 10]: > 50 µM; IC50 [4, 18]: > 50 µM
O=C1/C(=C/c2ccc(CO)o2)Sc2ccccc21 [TA2] | < 1 µM | > 200 µM | 11.4 µM | – | – | – | – | – | IC50 [3, 9]: > 50 µM; IC50 [3, 10]: > 50 µM
